{"source": "patent US20080124400A1", "about": "“Microparticles With High Loadings Of A Bioactive Agent” (Angiotech International AG, priority 2004, published 2008)", "origin": "cited, not measured here", "key": {"[1]": {"tested_on": "neutrophil"}, "[2]": {"tested_on": "synoviocytes"}, "[3]": {"tested_on": "normal chondrocytes and non-proliferating synoviocytes"}, "[4]": {"tested_on": "AP-1"}, "[5]": {"tested_on": "collagen induced arthritis", "conditions": "animal model"}, "[6]": {"tested_on": "T-cell"}}}
{"smiles": "CC(=O)O[C@H]1C(=O)[C@@]2(C)[C@H]([C@H](OC(=O)c3ccccc3)[C@]3(O)C[C@H](OC(=O)[C@H](O)[C@@H](NC(=O)c4ccccc4)c4ccccc4)C(C)=C1C3(C)C)[C@]1(OC(C)=O)CO[C@@H]1C[C@@H]2O", "note": "[Paclitaxel, paclitaxel]", "values": [{"measurement": "neutrophil activation", "setting": "[1]", "result": "inhibits neutrophil activation"}, {"measurement": "proliferation and apoptosis of synoviocytes", "setting": "[2]", "result": "prevents the proliferation of and induces apoptosis in synoviocytes"}, {"measurement": "toxicity to non-proliferating cells", "setting": "[3]", "result": "non-toxic"}, {"measurement": "AP-1 transcription activity", "setting": "[4]", "result": "inhibits AP-1 transcription activity"}, {"measurement": "collagen induced arthritis", "setting": "[5]", "result": "inhibits collagen induced arthritis"}, {"measurement": "T-cell response to stimuli and T-cell function", "setting": "[6]", "result": "decreases T-cell response to stimuli, and inhibits T-cell function"}]}
